Data taken from patent EP4796125A1, “TREATMENT OF PATIENT WITH NEGATIVE P53 GENE MUTATION, POSITIVE KRAS GENE MUTATION AND POSITIVE BRCA MUTATION” (Ascentawits Pharmaceuticals, Ltd., priority 2023, dated 2025).

Tests used:
[1] = system: A549 cells; assay: Cell cycle G2/M arrest, PI staining and flow cytometry; type: cell-based; details: 0.3-9 nM AST-3424 ± 5 µM Nutlin-3 (AST-3424 pre-treatment 2 hours), second experiment (Figure 10)
Method: The remaining operations were similar to those of the above experiment, and the compound treatment was as follows:
• For H460 cell line, 1% DMSO, adding 5 µM Nutlin-3 for treatment for 22 hours, adding 0.03 nM AST-3424 for treatment for 24 hours, adding 0.1 nM AST-3424 for treatment for 24 hours, adding 0.3 nM AST-3424 for treatment for 24 hours, and adding 1 nM AST-3424 for treatment for 24 hours; • For A549 cell line, 1% DMSO, adding 5 µM Nutlin-3 for treatment for 22 hours, adding 0.3 nM AST-3424 for treatment for 24 hours, adding 1 nM AST-3424 for treatment for 24 hours, adding […] AST-3424 for treatment for 24 hours.
For A549 cell line, • Adding 0.3 nM AST-3424 for pre-treatment for 2 hours, and then adding 5 µM Nutlin-3 for co-treatment for 22 hours; • Adding 1 nM AST-3424 for pre-treatment for 2 hours, and then adding 5 µM Nutlin-3 for co-treatment for 22 hours; • Adding 3 nM AST-3424 for pre-treatment for 2 hours, and then adding 5 µM Nutlin-3 for co-treatment for 22 hours; • Adding 9 nM AST-3424 for pre-treatment for 2 hours, and then adding 5 µM Nutlin-3 for co-treatment for 22 hours.

[2] = system: H460 WT (H460 wild-type cells); assay: In vitro proliferation under normoxia (CTG, 72 hours), Example 26; type: cell-based; details: Homo sapiens, NCI-H460, Table 21, AST-3424 alone or + 3 µM AST-3021
Method: (§1) • 1) H460 cell suspension was added to a 96-well plate (100 µL per well), with a cell density of 2000 cells/well. • 2) The cells were cultured overnight in a 37°C, 5% CO2 incubator. • 3) Compound Treatment
(§2) Monotherapy: 24 hours after cell plating, each well was supplemented with 99.5 µL of growth medium. Then, 0.5 µL of test compounds at different concentrations was added. The plate was gently shaken to ensure even mixing, and then placed in a 37°C, 5% CO2 incubator.
Combination therapy: 24 hours after cell plating, each well was supplemented with 99 µL of growth medium. Then, 0.5 µL of the combination compound Nutlin-3 was added. The plate was gently shaken to ensure even mixing, and then placed in an incubator for 2 hours. Then, 0.5 µL of test compounds at different concentrations was added. […]

[3] = system: H460 P53 KO #12; assay: as above; type: cell-based, human; details: Table 21
Method: as §1, §2
(§3) Combination therapy: 24 hours after cell plating, each well was supplemented with 99 µL of growth medium. Then, 0.5 µL of the combination compound Nutlin-3 was added. The plate was gently shaken to ensure even mixing, and then placed in an incubator for 2 hours. Then, 0.5 µL of test compounds at different concentrations was added. The plate was gently shaken to ensure even mixing, and then placed in a 37°C, 5% CO2 incubator. • 4) The cell plate was placed in the incubator for 72 hours. • 5) The cell plate to be tested was placed at room temperature and equilibrated for 30 minutes, and 100 µL of medium was discarded from each well. • 6) 25 µL of CTG reagent was added to each well, placed on a fast shaker to shake for 2 minutes, and placed at room temperature for 30 minutes (protected from light). • 7) The chemiluminescence signal value was read using a multifunctional microplate reader with a reading time of 1000 ms. • 8) IC50 values were calculated using Graph Pad Prism 5 software.
(§4) The p53 CRISPR/Cas9 KO plasmid (human) and p53 HDR plasmid (human) were purchased from Santa Cruz Company to construct H460 P53 KO cell lines, namely p53 knockout H460 cell lines. Three groups of H460 P53 KO cell lines were constructed and designated as H460 P53 KO # 1, H460 P53 KO # 7, and H460 P53 KO # 12.
(§5) The process for constructing p53 gene knockout cells is briefly described as follows: • H460 cells were plated in 6-well plates with 1 × 10^6 cells/well. • H460 cells were co-transfected with p53 CRISPR/Cas9 KO plasmid (h) (sc-416469) and p53 HDR plasmid (h) (sc-416469-HDR): 125 µL Opti-MEM + 1.25 µg each of the two plasmids + 5 µL P3000; 125 µL Opti-MEM + 15 µL liposome 3000 (increase volume, expected to increase transfection efficiency); they were co-incubated for 15 minutes, and then were added dropwise to the culture medium and mixed well.
(§6) After 48 h, 2 µg/mL puromycin was added for screening.
(§7) Two days later, the medium was replaced with fresh 1640 medium containing 1 µg/mL puromycin, and the medium was changed every two days.
(§8) When the cell colonies grew to a sufficient size, single colonies were picked and cultured.
(§9) When the cell number is sufficient, samples were collected for WB identification of the colonies. Colonies with no p53 expression were the p53 knockout H460 cell clones.
(§10) For the experimental procedures of this Example, please refer to the Experimental Procedure Overview in the section "Effects of compounds on in vitro H460 cell proliferation under normoxia" in Example 18.
(§11) Monotherapy: Compounds AST-3424/AST were separately administered in H460 and H460 P53 KO cell lines, respectively.
(§12) Combination therapy: Compounds AST-3424/AST were respectively used in combination with AST-3021, and respectively administeredin H460 and H460 P53 KO cell lines.
(§13) H460 P53 KO cell lines, i.e. H460 P53 KO # 1, H460 P53 KO # 7, H460 P53 KO # 12 cell lines, were used in experiments, respectively.

[4] = system: H460 P53 KO #1; assay: as above; type: cell-based, human; details: Table 21
Method: as §1, §2, §3, §4, §5, §6, §7, §8, §9, §10, §11, §12, §13

[5] = system: H460 P53 KO #7; assay: as above; type: cell-based, human; details: Table 21
Method: as §1, §2, §3, §4, §5, §6, §7, §8, §9, §10, §11, §12, §13

[6] = system: cell lines and mouse tumor models of BRCA pathogenic mutations; details: in vitro and in vivo pharmacodynamic experiments; data of WO2023174319A; cited from earlier work
[7] = system: cell lines and mouse tumor models of KRAS pathogenic mutations; details: in vitro and in vivo pharmacodynamic experiments; data of WO2023046060A1; cited from earlier work

C[C@H](OP(=O)(N1CC1)N1CC1)c1ccc([N+](=O)[O-])c(Oc2cccc(C(=O)N(C)C)c2)c1 [AST-3424]
G2/M cell cycle arrest [1]: induces concentration-dependent G2/M cell cycle arrest | IC50 [2]: 0.23 nM | IC50 ([3]; Homo sapiens, NCI-H460, H460 P53 KO # 12, AST-3424 alone or + 3 µM AST-3021): 1.99 nM | Ratio (monotherapy), knockout/wild ([3]; IC50 in H460 P53 KO # 12 / H460 WT): 8.65 | IC50 ([4]; Homo sapiens, NCI-H460, H460 P53 KO # 1, AST-3424 alone or + 3 µM AST-3021): 11.3 nM | Ratio (monotherapy), knockout/wild ([4]; IC50 in H460 P53 KO # 1 / H460 WT): 49.13 | IC50 ([5]; Homo sapiens, NCI-H460, H460 P53 KO # 7, AST-3424 alone or + 3 µM AST-3021): 23.1 nM | Ratio (monotherapy), knockout/wild ([5]; IC50 in H460 P53 KO # 7 / H460 WT): 100.43 | sensitivity of cell lines and mouse tumor models of BRCA pathogenic mutations [6]: more sensitive | sensitivity of cell lines and mouse tumor models of KRAS pathogenic mutations [7]: more sensitive
